Data reported in patent US20260062414A1, “NOVEL COCRYSTALS OF METHYLXANTHINES, THEIR POLYMORPHS AND PROCESS THEREOF” (FERTIS INDIA PVT LTD, priority 2022, published 2026).

Test: Dissolution studies of cocrystals
Conditions: for Release rate of active ingredient compared to pure form: dissolution study, cocrystal vs pure methylxanthine
Procedure: In an embodiment, the dissolution study of the cocrystals of Methylxanthines with the coformers Pterostilbene and Resveratrol were evaluated.

Row | SMILES | Bioavailability compared to pure form | Solubility compared to pure form | Release rate of active ingredient compared to pure form
1 | Cn1c(=O)c2[nH]cnc2n(C)c1=O.Oc1ccc(/C=C/c2cc(O)cc(O)c2)cc1 [TP:RS, Theophylline: Resveratrol (1:1) Cocrystal] | more bioavailable | lower solubility | slow-release rate
2 | COc1cc(/C=C/c2ccc(O)cc2)cc(OC)c1.COc1nc2c(c(=O)n1C)n(C)c(=O)n2C [ML:PB, Methylliberine: Pterostilbene] | more bioavailable | lower solubility | slow-release rate
3 | COc1cc(/C=C/c2ccc(O)cc2)cc(OC)c1.Cn1c(=O)[nH]c2ncn(C)c2c1=O [PX:PB, Paraxanthine: Pterostilbene (1:1) Cocrystal] | more bioavailable | lower solubility | slow-release rate
4 | COc1cc(/C=C/c2ccc(O)cc2)cc(OC)c1.Cn1c(=O)c2c(ncn2C)n(C)c1=O [CA:PB, Caffeine: Pterostilbene] | more bioavailable | – | slow-release rate
5 | COc1cc(/C=C/c2ccc(O)cc2)cc(OC)c1.Cn1cnc2c1c(=O)[nH]c(=O)n2C [TB:PB, Theobromine: Pterostilbene (1:1) Cocrystal] | better bioavailability | improved solubility | –
6 | COc1cc(/C=C/c2ccc(O)cc2)cc(OC)c1.Cn1c(=O)c2c(n(C)c1=O)n(C)c(=O)n2C [TC:PB, Theacrine: Pterostilbene] | more bioavailable | lower solubility | slow-release rate
